# Test results: patent US20250134861A1, “COMPOSITIONS COMPRISING 5-METHOXY-N,N-DIMETHYLTRYPTAMINE (5-MEO-DMT) FOR USE IN TREATING MENTAL DISORDERS” (GH RESEARCH IRELAND LIMITED, priority 2019, published 2025)
# How the values were obtained:
# healthy volunteers [1] = experiment: Clinical trial of inhaled 5-MeO-DMT in healthy volunteers: intensity of the psychedelic effects (PPEQ); type: in vivo, human
# Description: (§1) The trial consisted of two parts: Part A, where single doses of 5-MeO-DMT dosage amounts of 2 mg, 6 mg, 12 mg and 18 mg were administered; and Part B, where an initial 5-MeO-DMT dosage amount of 6 mg was administered, and then, unless the participant had already experienced a peak psychedelic experience based on the PPEQ or the supervising physician had decided that further dose increases were inappropriate based on observed side effects, further subsequent dosage amounts of 12 mg and 18 mg were administered with about 3 hours in between each administration. […] Pharmacokinetic analysis of 5-MeO-DMT and bufotenine plasma levels was performed at 1 hour and 3 hours after drug administration in Part A, and at 3 hours after drug administration in Part B.
# 18 participants were recruited into Part A of the study and 4 participants were recruited into Part B. 9 Participants were female and 13 participants were male. Median age was 29 years (range: 19 to 42 years). […]
# The Peak Psychedelic Experience Questionnaire (PPEQ) has been developed by the inventor as an improved alternative to the oceanic boundlessness dimension of the ASC and the MEQ30 to allow a simpler and quicker assessment of the intensity of a psychedelic experience. The PPEQ is comprised of three questions, all to be scored from 0 to 100 by marking a Visual Analogue Scale between 0 and 100 mm: • 1. […]
# [2] = system: respondents with self-reported psychiatric conditions; conditions: majority of respondents; ritual or recreational use; observational; cited from earlier work
# [3] = Clinical trial of inhaled 5-MeO-DMT in healthy volunteers: 5-MeO-DMT and bufotenine plasma levels; type: in vivo, human
# Description: as §1
# healthy volunteers [4] = experiment: Clinical trial of inhaled 5-MeO-DMT in healthy volunteers: safety and tolerability; type: in vivo, human
# Description: as §1
# 18 participants were recruited into Part A of the study and 4 participants were recruited into Part B. 9 Participants were female and 13 participants were male. Median age was 29 years (range: 19 to 42 years). In Part A, 4 participants received 2 mg, 6 participants received 6 mg, 4 participants received 12 mg and 4 participants received 18 mg of 5-MeO-DMT. In Part B, 1 participant received 6 mg, 2 participants received 6 mg and then 12 mg and one participant received 6 mg, 12 mg and then 18 mg of 5-MeO-DMT.
# [5] = Part A, 2 mg single inhaled dose (n = 4), Administration day, possibly or probably related, mild
# [6] = Part A, 6 mg single inhaled dose (n = 6), Administration day, possibly or probably related, mild
# [7] = Part A, 6 mg single inhaled dose (n = 6), Day 1, possibly or probably related, mild
# [8] = Part A, 18 mg single inhaled dose (n = 4), Administration day, possibly or probably related, mild
# [9] = Part A, 18 mg single inhaled dose (n = 4), Day 1, possibly or probably related, mild
# [10] = Part B, 12 mg (n = 3), after 6 mg, Administration day, possibly or probably related, mild
smiles,measurement,setting,value
"COc1ccc2[nH]cc(CCN(C)C)c2c1 [5-MeO-DMT, 5-methoxy-N,N-dimethyltryptamine]",Intensity of the psychedelic experience with dose escalation,"healthy volunteers [1]; Part B, 6 mg, then 12 mg and 18 mg about 3 hours apart",increased with the increasing dosage amounts in all participants
same,Onset of the first psychedelic symptoms after the inhalation,"healthy volunteers [1]; all participants, 2 to 18 mg inhaled",within a few seconds
same,"Self-perceived change of psychiatric symptoms (anxiety, depression, substance use problems, post-traumatic stress disorder)",[2],perceived improvements in symptoms
same,5-MeO-DMT plasma levels,"[3]; Part A and Part B, 3-hour time point, LLOQ of the 5-MeO-DMT assay 0.014 ng/ml",reached the lower level of quantification (LLOQ)
same,5-MeO-DMT plasma levels,"[3]; any dose in Part A, 1-hour timepoint",very low
same,"Evaluation of ECG, safety laboratory analyses, CADSS and cognitive tests (PVT, DSST, PMT)",healthy volunteers [4]; Part A and Part B,unremarkable
same,Severity and course of reported adverse events,healthy volunteers [4]; Part A and Part B,all mild (except for one moderate event) and all resolved spontaneously
same,Inhalation-related adverse events,"healthy volunteers [4]; Part A and Part B, 2 to 18 mg inhaled",No inhalation-related adverse events
same,Adverse events reported: Nausea,healthy volunteers [4]; [5],2
same,Adverse events reported: Tachycardia,healthy volunteers [4]; [5],1
same,Adverse events reported: Vision blurred,healthy volunteers [4]; [5],1
same,Adverse events reported: Anxiety,healthy volunteers [4]; [6],1
same,Adverse events reported: Headache,healthy volunteers [4]; [6],1
same,Adverse events reported: Nausea,healthy volunteers [4]; [6],1
same,Adverse events reported: Clumsiness,healthy volunteers [4]; [7],1
same,Adverse events reported: Feeling hot,healthy volunteers [4]; [7],1
same,Adverse events reported: Headache,healthy volunteers [4]; [7],1
same,Adverse events reported: Anxiety,"healthy volunteers [4]; Part A, 12 mg single inhaled dose (n = 4), Administration day, possibly or probably related, mild",1
same,Adverse events reported: Heart rate increased,"healthy volunteers [4]; Part A, 12 mg single inhaled dose (n = 4), Administration day, possibly or probably related, this event was moderate",1^1
same,Adverse events reported: Headache,healthy volunteers [4]; [8],1
same,Adverse events reported: Nausea,healthy volunteers [4]; [8],1
same,Adverse events reported: Abnormal dreams,healthy volunteers [4]; [9],1
same,Adverse events reported: Fatigue,healthy volunteers [4]; [9],1
same,Adverse events reported: Hallucination,healthy volunteers [4]; [9],1
same,Adverse events reported: Hyperacusis,healthy volunteers [4]; [9],1
same,Adverse events reported: Insomnia,healthy volunteers [4]; [9],1
same,Adverse events reported: Mental fatigue,healthy volunteers [4]; [9],1
same,Adverse events reported: Flashback,"healthy volunteers [4]; Part A, 18 mg single inhaled dose (n = 4), Day 7, possibly or probably related, mild",1
same,Adverse events reported: Nausea,"healthy volunteers [4]; Part B, 6 mg inhaled (n = 4), Administration day, possibly or probably related, mild",1
same,Adverse events reported: Fatigue,healthy volunteers [4]; [10],1
same,Adverse events reported: Head discomfort,healthy volunteers [4]; [10],1
same,Adverse events reported: Headache,healthy volunteers [4]; [10],1
same,Adverse events reported: Nausea,healthy volunteers [4]; [10],1
same,Adverse events reported,"healthy volunteers [4]; Part B, 18 mg (n = 1), after 12 mg and 6 mg, Administration day, Day 1 and Day 7",None reported
same,Changes in vital parameters,"healthy volunteers [4]; shortly after administration, no other noteworthy changes","temporary, not clinically relevant increase in heart rate and blood pressure"
